This is an account of results in patent US11713447B2, “Production of megakaryoctye compositions and therapies for treatment of thrombocytopenia” (Icahn School of Medicine at Mount Sinai, priority 2016, dated 2023).

Experiment [1] relates to Cord blood (CB) CD34+ cells. The experiment in a line: Ex vivo expansion of CB CD34+ cells in serum-free culture with valproic acid. The experiment is classed as cell-based. As for the experimental part:
Cord blood (CB) CD34+ cells were obtained and separated into a testing group and a control group. The groups were subjected to the following cell culture protocol:
The CB CD34+ cells were primed with a cytokine cocktail and plated in serum-free (SF) culture. The cytokine cocktail included stem cell factor (SCF) at an amount of 150 ng/mL, interleukin-3 (IL-3) at an amount of 50 ng/mL, Fms-like tyrosine kinase 3 (FLT-3) at an amount of 100 ng/mL, and thrombopoietin (TPO) at an amount of 100 ng/mL.
1 mM valproic acid (VPA) was added to the SF culture (testing group only). No VPA was added to the control group.
The cells were allowed to expand in the SF culture and collected at Day 7. Total CD34+ cell expansion was around 200-fold.

For experiment [2], the system named is Cord blood (CB) CD34+ cells. The experiment in a line: TPO-mediated MK differentiation after VPA expansion of CB CD34+ cells. It counts as cell-based. As for the experimental part: For this, 50,000 cryopreserved CB CD34+ cells were plated in serum-free (SF) media supplemented with stem cell factor (SCF), interleukin-3 (IL-3), Fms-like tyrosine kinase 3 (FLT-3), and TPO and allowed to expand with or without VPA (testing vs. control), as described in Example 1 above. After 7 days, instead of collecting, the cells were washed to remove VPA and cytokines, and re-plated in SF medium supplemented only with TPO. Approximately 50% more CD41+ MKs were detected in the VPA-expanded cultures than in cultures expanded with only cytokines (FIG. 3A). This corresponded to a final yield of ˜40 MKs generated from 1 CD34+ cell plated in the presence of VPA compared to […] CD41+ MKs generated by 1 CD34+ cell plated in the absence of VPA. q-PCR analyses confirmed upregulation of MK-specific genes (GATA1, PF4, and NFE2) in the cultures exposed to VPA before MK differentiation (FIG. 3B).

Regarding `CCCC(CCC)C(=O)O` [VPA, valproic acid], the “number of CD34+ cells in VPA-treated cultures relative to cells expanded in the absence of VPA” value in experiment [1] (1 mM VPA added day 1, SF culture with SCF, IL-3, FLT-3, TPO) is recorded as > 200 fold. Further, the “Total CD34+ cell expansion” value in experiment [1] (1 mM VPA, SF culture, collected at Day 7) is reported as “around 200 fold”. In experiment [1] (VPA-treated SF culture), the “CD41+ MK cells in expanded HSCs” value was 8.9±2%, the “glycophorin (GPA)+ erythroid cells in expanded HSCs” value is 17±5.4% and the “primitive CD34+/CD90+ cells in expanded HSCs” value was 74.2±9.8%. The “more CD41+ MKs in VPA-expanded cultures than in cultures expanded with only cytokines” value in experiment [2] (7 days expansion with VPA, then SF medium with TPO only) is “Approximately 50%”. In addition, the “q-PCR expression of MK-specific genes (GATA1, PF4, and NFE2)” value in experiment [2] (cultures exposed to VPA before MK differentiation) was “upregulation”. Besides, the “final yield of MKs generated from 1 CD34+ cell plated” value in experiment [2] (plated in the presence of VPA) is listed as 40 MKs generated from 1 CD34+ cell.
